In ChEMBL document CHEMBL1152100, “Enzymatic synthesis of sialyl Lex and derivatives based on a recombinant fucosyltransferase” (Bioorg Med Chem Lett, 1991):

Target: T1, Alpha-(1,3)-fucosyltransferase 10 (Homo sapiens) (UniProt Q6P4F1)
T1 sequence (whole entry): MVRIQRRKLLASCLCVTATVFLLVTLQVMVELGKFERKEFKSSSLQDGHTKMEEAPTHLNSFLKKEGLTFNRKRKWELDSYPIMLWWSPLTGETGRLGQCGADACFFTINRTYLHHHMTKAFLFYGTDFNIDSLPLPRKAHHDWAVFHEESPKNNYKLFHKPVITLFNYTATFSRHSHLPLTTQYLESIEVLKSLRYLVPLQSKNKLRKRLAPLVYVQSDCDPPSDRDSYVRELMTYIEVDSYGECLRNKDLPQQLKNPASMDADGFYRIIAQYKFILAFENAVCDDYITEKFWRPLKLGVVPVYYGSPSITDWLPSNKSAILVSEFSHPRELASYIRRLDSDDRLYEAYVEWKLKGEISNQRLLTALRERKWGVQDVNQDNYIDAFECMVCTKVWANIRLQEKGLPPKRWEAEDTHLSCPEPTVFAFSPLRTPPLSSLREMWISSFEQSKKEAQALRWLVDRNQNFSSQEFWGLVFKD
Assay: Compound was evaluated for acceptor substrate specificity toward Fucosyltransferase for the galactosides of GlcNAc with beta 1,3 or beta 1,4-linkages when applied 2 uM of GDP-Fuc consumed per hr.

Row | Relative activity | Compound
1 | 100 | CC(=O)N[C@@H]1[C@@H](O)[C@H](O[C@@H]2O[C@H](CO)[C@H](O)[C@H](O)[C@H]2O)[C@@H](CO)O[C@H]1O

Target: Alpha-(1,3)-fucosyltransferase 10 (Homo sapiens) (UniProt Q6P4F1)
Assay: (§1) Acceptor substrate specificity toward Fucosyltransferase for the galactosides of GlcNAc with beta 1,3 or beta 1,4-linkages

Row | Relative activity | Compound
2 | 120 | LACTOSE, ANHYDROUS

Target: T1, Alpha-(1,3)-fucosyltransferase 10 (Homo sapiens)
Assay: as §1

Row | Relative activity | Compound
3 | 3 | OC[C@@H]1OC(O)[C@@H](O)[C@H](O)[C@H]1O (stereo not given in full)
4 | 5 | OC[C@H]1NC[C@H](O)[C@@H](O)[C@@H]1O
5 | 7 | OC[C@@H]1OC(O)[C@@H](O)[C@H](O)[C@@H]1O (stereo not given in full)
6 | 580 | CC(=O)N[C@H]1[C@@H](O[C@@H]2O[C@@H](CO)[C@H](O)[C@H](O)[C@@H]2O)[C@H](O)[C@H](CO)O[C@H]1O
7 | 2 | OC[C@H]1OC=C[C@@H](O)[C@H]1O
8 | < 1 | C=CCO[C@@H]1O[C@@H](CO)[C@@H](O)[C@H](O)[C@@H]1O
9 | 27 | CC(=O)N[C@@H]1[C@@H](O)[C@H](O[C@@H]2O[C@H](CO)[C@H](O)[C@H](O)[C@H]2O)[C@@H](CO)O[C@H]1O
10 | 23 | CC(=O)N[C@@H]1[C@H](O[C@H]2[C@H](O)[C@H](NC(C)=O)C(O)O[C@H]2CO)O[C@@H](CO)[C@@H](O)[C@@H]1O (stereo not given in full)
11 | 5 | OC[C@H]1OC(O)[C@H](O)[C@@H](O)[C@@H]1O (stereo not given in full)
12 | 3 | CC(=O)N[C@H]1C(O)O[C@H](CO)[C@@H](O)[C@@H]1O (stereo not given in full)
13 | 4 | CC(=O)N[C@H]1C(O)O[C@H](CO)[C@H](O)[C@@H]1O (stereo not given in full)
14 | 250 | C[C@@H]1O[C@@H](O[C@@H]2[C@H](O[C@H]3[C@H](O)[C@H](O)[C@@H](O)O[C@H]3CO)O[C@@H](CO)[C@H](O)[C@@H]2O)[C@@H](O)[C@@H](O)[C@@H]1O
15 | 7 | OC[C@H]1OC=C[C@@H](O)[C@@H]1O
16 | 13 | CC(=O)N[C@@H]1[C@H](OC[C@@H]2O[C@@H](O[C@H]3[C@H](O)[C@H](O)C(O)O[C@H]3CO)[C@@H](O)[C@@H](O)[C@H]2O)O[C@@H](CO)[C@@H](O)[C@@H]1O (stereo not given in full)
17 | 7 | OC[C@H]1S[C@H](O)[C@H](O)[C@@H](O)[C@@H]1O
18 | 310 | OC[C@@H]1O[C@@H](O[C@H]2[C@H](O)[C@H](O)[C@H](O)S[C@H]2CO)[C@@H](O)[C@@H](O)[C@H]1O
19 | 6 | O=C[C@H](O)[C@@H](O)[C@@H](O)[C@H](O)CO
20 | 60 | CC(=O)N[C@H]1[C@H]([C@H](O)[C@H](O)CO)O[C@@](O[C@@H]2[C@H](O)[C@H](O[C@H]3[C@H](O)[C@H](NC(C)=O)C(O)O[C@H]3CO)O[C@@H](CO)[C@@H]2O)(C(=O)O)C[C@H]1O (stereo not given in full)
